From US20120329865A1, “MOLECULES RELATED hERG ION [sequence] AND THE USE THEREOF” (priority 2009, published 2012) come the findings set out here.

Structures are written as SMILES. “Also recorded” adds a separate entry of the source.

Series [1] addresses T1, hERG ion channels (Homo sapiens, UniProt Q12809). Briefly: Label-free biosensor hERG modulator classification from profiles in HT29, HEK-hERG and HEK293 cells plus mallotoxin modulation. The conditions noted are these: label-free biosensor cellular assays.
From the text: Label-free RWG biosensor cellular assays were developed to directly assaying the activation and its subsequent signaling of hERG channels without applying voltages to the cells. […] Generally, the disclosed methods to characterize modulators acting directly through hERG ion channel, or indirectly via hERG-associated signaling complexes are related to label-free biosensor cellular assays. Disclosed is the use of three types of cells: a cancerous cell line endogenously expressing hERG ion channels, a native cell line without endogenous hERG channels and its engineered cell line overexpressing hERG channels, for characterizing hERG modulators. Also disclosed is the use of mallotoxin or other hERG activator as a readout to further confirm the modes of action of hERG modulators.
(§1) In a specific approach, any compound can be profiled in three different types of cells, HT29, HEK-hERG, and HEK-293 cells, in both agonism and antagonism modes. The human colon cancerous cell line HT-29 is known to endogenously express hERG channels. HEK293 is a native cell line without endogenously expressed hERG channels, while HEK-hERG is an engineered HEK293 cell having stably expressed hERG channels.
Series [2] has as its target T1, hERG ion channels. As to the kind of experiment: Rb+ flux assay using HEK-hERG cells. As to conditions: 5 mM KCl, modulators at 10 or 50 micromolar (FIG. 3).
Method: Briefly, 50,000 cells per well were plated in 96-well tissue culture treated plates 20 hours before assay. In the next day, cells were incubated with complete cell culture medium containing 5 mM RbCl for 3 hours at 37° C. with 5% CO2. Then compounds (10×) diluted in HBSS were added into the cell culture medium and cells were incubated at 37° C. with 5% CO2 for another hour. Cells were washed twice with Rb^+ free cell culture medium and incubated with 180 μl/well of cell culture medium containing different concentration of KCl for exactly 10 minutes. The supernatant from each well was transferred to a new 96 well plate immediately. Cells were lysed with 180 μl/well 0.5% Triton100 in HBSS. The Rb^+ concentration of each sample was determined by ICR8000 (Aurora Biomed Inc.).
For series [3], the target named is T1, hERG ion channels. As to the kind of experiment: Label-free RWG biosensor (Epic) DMR assay, agonism mode, HT29 cells endogenously expressing hERG. As to conditions: 10 micromolar. On the technique in general: The hERG channel carries a current that helps repolarise heart muscle cells.
From the text: (§2) Using the RWG biosensor Corning® Epic® system, all compounds were systematically characterized for their ability to modulate hERG ion channels in live cells. The Epic® system consists of a temperature-control unit, an optical detection unit, with an on-board liquid handling unit with robotics, or an external liquid accessory system with robotics. The detection unit is centered on integrated fiber optics, and enables kinetic measures of cellular responses with a time interval of ˜7 or 15 sec. The compound solutions were introduced by using either the on-board liquid handling unit, or the external liquid accessory system; both of which use conventional pippetting system.
(§3) Epic® wavelength interrogation system (Corning Inc., Corning, N.Y.) was used for whole cell sensing. This system consists of a temperature-control unit, an optical detection unit, and an on-board liquid handling unit with robotics. The detection unit is centered on integrated fiber optics, and enables kinetic measures of cellular responses with a time interval of ˜15 sec.
(§4) Cells were plated in 384-well Epic® cell culture treated plate (Corning Cat#5040) 16-20 hours before assay (15000 cells/well for HEK293 and HEK-hERG cells, 30000 cells/well for HT29 cells). For both HEK-hERG and its parental HEK293 cells, each well was coated with 10 μl 5 μg/ml fibronectin. One hour before assay, cells were washed twice on a BioTek ELx405 Select washer with Hank's Balanced Salt Solution (HBSS) containing 20 mM Hepes. Cells were incubated in 40 μl/well HBSS at 28° C. inside the Epic system for one hour. For each assay, a 2-min baseline was initiated, followed by addition of 10 μl compound solutions (5×) and the cell responses were recorded continuously for one hour.
(§5) All studies were carried out at a controlled temperature (28° C.). At least two independent sets of experiments, each with at least three replicates, were performed. […] All dose-dependent responses were analyzed using non-linear regression method with the GraphPad Prism 5.
as §1
The target in series [4] is T1, hERG ion channels. Briefly: DMR antagonism mode: modulation of the mallotoxin DMR signal in HEK-hERG cells.
For a further series, the target named is hERG channel (Homo sapiens, UniProt Q12809). Briefly: Automated patch clamp recording using IonWorks, CHO-hERG cells. As to conditions: 50 micromolar; tail current at -35 mV after +40 mV depolarization. The protocol:
CHO-K1 cells stably expressing hERG channel (CHO-hERG) were cultured in T175 flask till about 70% confluent. Cells were washed twice with PBS, then 2.5 ml 0.25% Trypsin/EDTA was mixed with 2.5 ml PBS and added to the T175 flask. Cells were incubated about 2 minutes with the diluted Trypsin/EDTA solution at 37° C., then were continuously incubated about 3 minutes at room temperature. 20 ml fresh medium were added to suspend the cells and transfer to a 50 ml tube. Cells were centrifuged down at 750 rpm for 5 minutes. The extra medium was removed and cells were resuspended in 6 ml External Buffer (137 mM NaCl, 4 mM KCl, 1.8 mM CaCl2, 1 mM MgCl2, 10 mM HEPES, 10 mM glucose, pH 7.4). Then cells were centrifuged again at 450 rpm for another 5 minutes. Finally cells were resuspended in 4 ml the External Buffer, cell number was counted using a hemacytometer. Cell suspension was diluted to 2.5×10^6 cells/ml with the External Buffer. 4 ml of the resuspended cells were added to the cell reservoir in IonWorks. The Internal solution used contains: 40 mM KCl, 100 mM K-Gluconate, 3.2 mM MgCl2, 2 mM CaCl2, 5 mM HEPES, pH 7.25 (adjusted with KOH). […]
hERG currents were recorded on IonWorks Quattro (Molecular Devices). […] Tail currents were measured during an ensuing return to −35 mV. […]
For orientation: In patch-clamp work, channel activity is measured electrically.

Series [5] deals with T1, hERG ion channels. As to the kind of experiment: DMR antagonism mode: modulation of the mallotoxin DMR signal in HT29 cells.
The target in series [6] is T1, hERG ion channels. As to the kind of experiment: Label-free RWG biosensor (Epic) DMR assay, agonism mode, HEK-hERG cells stably expressing hERG. As to conditions: 10 micromolar.
From the text: as §2, §3, §4, §5, §1
Where [7] appears, read: molecule 10 micromolar, mallotoxin 16 micromolar.
Where [8] appears, read: score assigned from % modulation of mallotoxin DMR (10% = 1).

T1 sequence (Q12809 whole entry): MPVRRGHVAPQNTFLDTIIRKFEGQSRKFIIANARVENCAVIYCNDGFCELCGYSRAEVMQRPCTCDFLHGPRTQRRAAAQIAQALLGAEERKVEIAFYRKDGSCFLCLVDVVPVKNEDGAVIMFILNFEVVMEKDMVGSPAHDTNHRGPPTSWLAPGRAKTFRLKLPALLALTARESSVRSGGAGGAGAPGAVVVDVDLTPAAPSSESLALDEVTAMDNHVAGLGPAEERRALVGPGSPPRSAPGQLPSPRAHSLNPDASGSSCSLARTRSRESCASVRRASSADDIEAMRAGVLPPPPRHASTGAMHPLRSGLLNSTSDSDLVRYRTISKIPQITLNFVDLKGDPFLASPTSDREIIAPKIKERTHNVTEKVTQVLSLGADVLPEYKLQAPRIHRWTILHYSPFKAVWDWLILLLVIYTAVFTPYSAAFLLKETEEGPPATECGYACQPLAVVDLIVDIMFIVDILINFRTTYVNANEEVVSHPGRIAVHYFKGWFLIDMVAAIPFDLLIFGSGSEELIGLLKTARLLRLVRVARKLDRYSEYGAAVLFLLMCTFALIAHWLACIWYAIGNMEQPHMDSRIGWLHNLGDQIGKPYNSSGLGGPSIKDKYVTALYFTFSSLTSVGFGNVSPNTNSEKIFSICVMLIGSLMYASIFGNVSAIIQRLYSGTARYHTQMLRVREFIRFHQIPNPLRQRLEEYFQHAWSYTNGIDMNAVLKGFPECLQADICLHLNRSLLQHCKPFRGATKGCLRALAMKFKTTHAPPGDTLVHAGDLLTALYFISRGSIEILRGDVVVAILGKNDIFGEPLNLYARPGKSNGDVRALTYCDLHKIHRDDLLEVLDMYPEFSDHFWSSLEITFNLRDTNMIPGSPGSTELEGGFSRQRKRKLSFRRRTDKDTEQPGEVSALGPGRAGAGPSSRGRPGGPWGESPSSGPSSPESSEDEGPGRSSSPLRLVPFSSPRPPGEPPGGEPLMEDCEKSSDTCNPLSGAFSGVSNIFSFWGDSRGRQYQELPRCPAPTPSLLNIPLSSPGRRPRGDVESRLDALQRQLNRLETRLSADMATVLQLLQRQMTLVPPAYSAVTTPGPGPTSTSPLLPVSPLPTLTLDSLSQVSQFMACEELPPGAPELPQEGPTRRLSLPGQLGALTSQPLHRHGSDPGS
Sequence of hERG channel (Q12809 whole entry): as above

For the molecule `O=C(O)c1ccccc1Nc1cccc(C(F)(F)F)c1` [flufenamic acid], the “class of hERG modulator assigned” value at hERG ion channels [1] is “hERG pathway activator, a label free biosensor hERG activator; also recorded: weak hERG activator”. Also, at hERG ion channels [2], the “Rb+ flux signal” value is “weak hERG ion flux activator; also recorded: small and dose-dependent increase”. The “DMR signal in HT29 cells” value on hERG ion channels [3] is given as “robust DMR signals”. At hERG ion channels [4] (setting [7]), the “modulation index against the mallotoxin DMR signal in HEK-hERG” value was “~+12%”. Also, at hERG ion channels [4] (setting [8]), the “score of modulation index, HEK-hERG coordinate” value was 1. Also, on hERG channel, the “effect on hERG current (tail current)” value is recorded as “weak hERG current activator; also recorded: potentiated”. For the same molecule, the “modulation index against the mallotoxin DMR signal in HT29” value on hERG ion channels [5] (setting [7]) is reported as −90%. Further, the “effect on the mallotoxin DMR signal in HT29 cells (in words)” value at hERG ion channels [5] (molecule 10 micromolar, mallotoxin 16 micromolar, antagonism assay) is given as “selectively attenuated”. Moreover, the “score of modulation index, HT29 coordinate” value on hERG ion channels [5] (setting [8]) was −9. In addition, the “DMR signal in HEK-hERG cells” value on hERG ion channels [6] was “robust DMR signals”.
